Patent publication US20210352950A1 (priority 2019, published 2021)

Experiments:
[1] = tested on: KRAS mutant cancer cells (HCT116, DLD-1, CT26.WT, H23, H727, PANC1); assay: Muse cell viability assay, KRAS mutant panel; format: cell-based, human and murine; conditions: CTR condition, vitamin C ≥0.3 mM, 24 hours
[2] = tested on: KRAS wild type cell lines (SW48, HT29, PC-3, COV362), normal colon cell line (CCD841CoN) and normal fibroblasts (BJ); assay: Muse cell viability assay, KRAS wild type and normal cells; format: cell-based; conditions: single agent or in combination with STS condition
[3] = tested on: HCT116 subcutaneous tumors; assay: HCT116 xenograft tumor volume; format: in vivo, mouse; conditions: NSG mice
ROS in HCT116 cells = assay: CellROX reactive oxygen species measurement; format: cell-based, human; conditions: HCT116, vitamin C 1 mM as single intervention, 30 minutes
Description: Intracellular reactive-oxygen species (ROS) were measured using the CellROX oxidative stress reagents (Life Technologies, Cat. #: 10422). CellROX fluorogenic probe is designed to measure reactive-oxygen species (ROS) in live cells. […] For ROS measurement, cells were seeded in 10 cm petri dish (4×10^5 cells in CTR medium). After 24 hours cells were rinsed twice in 1×PBS and CTR or STS medium was added. 24 hours later, cells were trypsinized, resuspended in their respective media, and treated with 1 mM sodium ascorbate and 1 μM CellROX deep red reagent in the dark, for 30 minutes at 37° C. and 5% CO2. Then, fluorescence was immediately analyzed by flow cytometry (Attune NxT flow cytometer). Data were processed by Kaluza analysis software (Beckman coulter, version 2.0). Data were expressed as fold change of the median fluorescent intensity (MFI) of each treated sample versus the MFI of control sample.

[4] = tested on: ferrous ion (Fe2+) in HCT116 cells; assay: Intracellular ferrous iron detection (Iron Assay Kit); format: cell-based, human; conditions: HCT116, STS 24 hours + vitamin C 350 μM 3 hours, compared to all other conditions
Description: Intracellular ferrous ions were measured using Iron Assay Kit (Cat. #: ab83366). Ferrous ions (Fe^2+), but not ferric ions (Fe^3+) specifically reacts with […] (an iron chromogen) producing a stable colored complex, whose absorbance is measured at 593 nm. For Fe^2+ measurement experiment, cells were seeded in 10 cm petri dish (4×10^5 cells) in CTR medium. After 24 hours cells were rinsed twice in 1×PBS and CTR or STS medium was added. […] Next, cells were lysed in iron assay buffer and intracellular ferrous iron level was measured according to manufacturer protocol. Absorbance was recorded at the wavelength of 593 nm using a microplate reader (Infinite M200 TECAN). Data are expressed as fold change versus control sample.

HO-1 = HO-1 protein expression in CT26.WT (western blot); format: cell-based, murine; conditions: vitamin C 350 μM 3 hours
Description: (§1) Cells were washed twice in ice-cold PBS and lysates were prepared in RIPA lysis buffer (50 mM Tris HCl pH 7.4, 150 mM NaCl, 1% NP-40, 0.25% deoxycholic acid, 1 mM EDTA) supplemented with protease and phosphatase inhibitors (protease inhibitor cocktail set III EDTA-free, Calbiochem, Cat. #: S39134; PhosStop, Roche), Samples were sonicated (bioruptor plus, diogenode) and centrifuged at 16.1 g for 30 minutes at 4° C. Tumor tissues were collected and snap frozen in liquid nitrogen immediately after mice were sacrificed, and stored in -80° C. until use. […] Protein concentrations were determined by BCA assay (Thermo Fisher Scientific, Cat. #: 23225). Proteins were diluted in 1× Laemmli sample buffer, boiled at 95° C. for 5 minutes and 30 μg of total proteins were separated by using SDS-PAGE and analyzed by western blotting by standard procedures. […] Membranes were incubated overnight at 4° C. with gentle shaking with the following primary antibodies: […] ADI-SPA894), FTH (1:1000, Cell Signaling, Cat. #: 3998), AMPK (1:1000, Cell Signaling, Cat. #: 2532), phospho-[…] AMPK (1:1000, Cell Signaling, Cat. #: 2535), eIF2a (1:1000, Cell signaling, Cat. #: 5324), phospho […] eIF2a (1:1000, Cell signaling, Cat. #: 3597), AKT (1:1000, Cell Signaling, Cat. #: 9272), phospho-[…] […] Bands intensity was quantified with NIH Image J software (version 1.48v).

FTH = FTH protein expression in cells (western blot); format: cell-based, human and murine; conditions: HCT116, CT26.WT, STS 24 hours + vitamin C 350 μM 3 hours
Description: as §1

[5] = tested on: phospho-AMPK (threonine 172); assay: AMPK phosphorylation (western blot); format: cell-based, human; conditions: HCT116, STS 24 hours + vitamin C 350 μM 3 hours
Description: as §1

phospho-AKT (serine 473) = assay: AKT phosphorylation (western blot); format: cell-based, human; conditions: HCT116, STS 24 hours + vitamin C 350 μM 3 hours
Description: as §1

[6] = tested on: phospho-eIF2a (serine 51); assay: eIF2a phosphorylation (western blot); format: cell-based, human; conditions: HCT116, STS 24 hours + vitamin C 350 μM 3 hours
Description: as §1

[7] = tested on: Phosphorylated histone H2AX; assay: Histone H2AX phosphorylation (DNA damage, western blot); format: cell-based, human and murine; conditions: HCT116 and CT26.WT, STS 24 hours + vitamin C 350 μM 3 hours
Description: as §1

[8] = intraperitoneal injection; Chen et al., 2007; 2008; cited from earlier work
HCT116 cells = assay: Muse cell viability assay (percentage of dead cells); conditions: HCT116, CTR medium, vitamin C ≥0.3 mM (350 μM), 24 hours

O=C1O[C@H]([C@@H](O)CO)C(O)=C1O [vitamin C, ascorbic acid]
sensitivity to vitamin C [1]: modest sensitivity | sensitivity to vitamin C treatment [2]: not sensitive | tumor progression, single interventions ([3]; 3-days FMD every week or vitamin C 4 g/kg i.p. twice a day): delayed tumor progression | anti-cancer effect combined with fasting cycles ([3]; 3 cycles of fasting (2 days, water only) + vitamin C 4 g/kg i.p. twice a day): significantly enhanced | ROS levels (ROS in HCT116 cells): increase ROS levels | ferrous ion (Fe2+) level [4]: significantly higher | HO-1 protein expression level (HO-1): up-regulates HO-1 expression level | FTH protein expression level (FTH): reduces FTH protein expression level | AMPK phosphorylation level [5]: strongly up-regulated AMPK phosphorylation level | AKT phosphorylation level (downregulated upon STS) (phospho-AKT (serine 473)): potentiated even further | eIF2a phosphorylation level [6]: significantly induced the phosphorylation level | DNA damage measured by phosphorylation level of histone H2AX [7]: strongly induced DNA damage | vitamin C level reached by parenteral (intraperitoneal) administration [8]: 3 mM | cell death (HCT116 cells): able to induce cell death
